In publication PMC2779801, “Comparative biochemical analysis of HIV-1 subtype B and C integrase enzymes” (Retrovirology, 2009) one finds Inhibition of disintegration, EC50 and IC50 data, which are given here for three molecules.

For assay [1], the target named is T1, HIV-1 subtype B integrase (Human immunodeficiency virus type 1, UniProt P12497). Kind of assay: Disintegration assay. Format: biochemical. As to conditions: increasing inhibitor concentration. An excerpt: Oligonucleotides were purchased from Invitrogen and then PAGE purified.
ATP (Perkin Elmer). Unincorporated nucleotides were discarded utilizing 'NucAway columns' (Ambion).

Assay [2] addresses T2, HIV-1 subtype C integrase (Human immunodeficiency virus type 1, UniProt Q9QN97, C991S/F896H). As to conditions: for Inhibition of disintegration: increasing inhibitor concentration. Here is the method:
(§1) Oligonucleotide-based assays were performed to measure integrase enzymatic activities. All oligonucleotide probes were gel purified and phenol-chloroform extracted. INT1 oligonucleotide was radiolabeled using the T4 Polynucleotide Kinase kit (Ambion) with [γ-^32P] ATP (Perkin Elmer). Unincorporated nucleotides were discarded utilizing 'NucAway columns' (Ambion). A double stranded oligonucleotide substrate was obtained by mixing equal concentrations of INT1 and INT2, heating to 95°C and stepwise cooling to 37°C in 100 mM NaCl. The oligonucleotides T35 and SK70 were annealed to form a second double stranded oligonucleotide. INT1/2 mimicked the HIV-1 U5 long terminal repeat (LTR) and acted as a substrate for 3' processing. T35/SK70 acted as a site for integration of the processed INT1/2 fragment and mimicked host DNA.
Concentrations of enzymes used in the following reactions were optimized in a series of preliminary experiments. Integrase reactions were performed in a buffer containing 20 mM Hepes (pH 7.5), 30 mM NaCl, 1 mM dithiothreitol, 125 μM ZnCl2 and 0.125 pmol dsDNA substrate (INT1/2) in a final volume of 10 μl. Recombinant integrase (3.1 μM), and varying concentrations of integrase inhibitors or water/DMSO as control, were mixed and preincubated at 37°C for 15 min. 3' processing reactions were initiated by addition of 7.5 mM of MnCl2 and incubated at 37°C for 3 min unless otherwise indicated. For strand transfer reactions, 1.25 pmol of dsDNA template (T35/SK70) were added and the reaction mixture was further incubated at 37°C for 1 hour unless otherwise indicated. Reactions were stopped by adding 5 times the volume of gel loading dye (formamide containing 1% SDS, 0.25% bromophenol blue, and 0.25% xylene cyanol) and heating to 95°C. Reaction products were separated on 6% acrylamide, 7 M urea sequencing gels. Gels were dried and exposed utilizing phosphorimager screens (GE Healthcare) and scanned in a Molecular Dynamics Typhoon Phosphorimager (GE Healthcare). Product analysis and quantification were conducted using ImageQuant and GraphPad Prism 4.0 software. Quantification of standard error of the mean (SEM) was performed with GraphPad Prism 4.0 software.

The subject of a further assay is Subtype B virus 5331. Description: Cell culture phenotypic drug susceptibility assay (p24 antigen) in cord blood mononuclear cells. Format: cell-based, HIV-1. The following applies: read-out: EC50 Values. The method, then: (§2) Recombinant viruses (subtype B) (pNL4-3 and IIIb) and viruses obtained from either our primary HIV infection cohort or from long-term infected patients (subtype B and C) were amplified as previously described. Drug susceptibility was measured in cell culture-based phenotypic assays using cord blood mononuclear cells to determine the extent of […] HIV replication blockage by integrase inhibitors.

Another assay relates to Subtype B virus IIIb. The description is as above. Format: cell-based, HIV-1. As to conditions: read-out: EC50 Values. The method, then:
as §2

The subject of a further assay is Subtype B virus pNL4-3. The assay is described as above. Format: cell-based, HIV-1. As to conditions: read-out: EC50 Values. The method, then:
as §2

The test system of a further assay is Subtype C virus 4742. The description is as above. Format: cell-based, HIV-1. The method, then: as §2
A further assay deals with Subtype C virus 96USNG31. Described as above. Format: cell-based, HIV-1. The method, then:
as §2

The test system of another assay is Subtype C virus BG-05. The assay is described as above. Format: cell-based, HIV-1. The method, then:
as §2

The subject of another assay is Subtype C virus HB-1. The description is as above. Format: cell-based, HIV-1. The method, then:
as §2

Assay [3] deals with T1, HIV-1 subtype B integrase. Format: biochemical. As to conditions: Mn2+-based assay, 95% confidence interval in brackets. Here is the method: as §1
Concentrations of enzymes used in the following reactions were optimized in a series of preliminary experiments. Integrase reactions were performed in a buffer containing 20 mM Hepes (pH 7.5), 30 mM NaCl, 1 mM dithiothreitol, 125 μM ZnCl2 and 0.125 pmol dsDNA substrate (INT1/2) in a final volume of 10 μl. […] Product analysis and quantification were conducted using ImageQuant and GraphPad Prism 4.0 software. Quantification of standard error of the mean (SEM) was performed with GraphPad Prism 4.0 software.

Assay [4] concerns the target T1, HIV-1 subtype B integrase. Format: biochemical. As to conditions: Mg2+-based microtiter plate assay, 95% confidence interval in brackets, read-out: Strand Transfer IC50.
Protocol: A microtiter plate assay was utilized to evaluate MgCl2-mediated strand transfer as previously described [24, 31]. Briefly, biotinylated oligonucleotides mimicking LTR donor DNA (5'-biotin-[sequence] and 5'-[sequence]) were immobilized onto black-colour Reacti-Bind Streptavidin-coated plates (ThermoFisher). 313 nM recombinant enzyme was bound to donor DNA on the plates in the presence of 25 mM MnCl2 and the plates were then washed to remove excess unbound enzyme. […] Covalently linked target DNA was detected through use of an anti-FITC antibody conjugated to alkaline phosphatase (Roche) and a chemiluminescence substrate (CSPD Sapphire II, Applied Biosystems). Integrase inhibitors were added at increasing concentrations shortly before the addition of target DNA. Strand transfer was evaluated by chemiluminescence.
Assay [5] concerns the target T2, HIV-1 subtype C integrase. As to conditions: read-out: Strand Transfer IC50, Mg2+-based microtiter plate assay, 95% confidence interval in brackets. The method, then:
A microtiter plate assay was utilized to evaluate MgCl2-mediated strand transfer as previously described. Briefly, biotinylated oligonucleotides mimicking LTR donor DNA (5'-biotin-[…] and 5'-[…]) were immobilized onto black-colour Reacti-Bind Streptavidin-coated plates (ThermoFisher). 313 nM recombinant enzyme was bound to donor DNA on the plates in the presence of 25 mM […] and the plates were then washed to remove excess unbound enzyme. […] Covalently linked target DNA was detected through use of an anti-FITC antibody conjugated to alkaline phosphatase (Roche) and a chemiluminescence substrate (CSPD Sapphire II, Applied Biosystems). Integrase inhibitors were added at increasing concentrations shortly before the addition of target DNA. Strand transfer was evaluated by chemiluminescence.

For the next assay, the system named is Subtype B virus 5326. Kind of assay: Cell culture phenotypic drug susceptibility assay (p24 antigen) in cord blood mononuclear cells. Format: cell-based, HIV-1. The following applies: read-out: EC50 Values. Here is the method: as §2
For another assay, the system named is Subtype B virus BK 132. The assay is described as above. Format: cell-based, HIV-1. As to conditions: read-out: EC50 Values. Here is the method:
as §2

Another assay has as its system Subtype C virus Mole 03. The assay is described as above. Format: cell-based, HIV-1. The method, then: as §2
Where [6] appears, read: Human immunodeficiency virus 1, read-out: EC50 Values.

Molecules are shown by their SMILES. Read-outs that look alike come from different tables or passages of the source.

As usually defined, the EC50 is the concentration giving half of the maximal effect. Broadly, the IC50 is the concentration needed to halve the response being measured.

Take `COc1cc2c(cc1Cc1cccc(Cl)c1F)c(=O)c(C(=O)O)cn2[C@H](CO)C(C)C` [EVG, elvitegravir]: the Inhibition of disintegration result in [1] and in [2] was “neither RAL nor EVG had much effect” in each case. Further, the EC50 in the assay on Subtype B virus 5331 came out at 0.1 ± 0.07 nM; in the assay with Subtype B virus IIIb (IIIB) it was 1.8 ± 0.6 nM; with Subtype B virus pNL4-3, 0.9 ± 0.3 nM; in the assay with Subtype C virus 4742 (setting [6]), 2.2 ± 0.2 nM; in the assay on Subtype C virus 96USNG31 (setting [6]) it was 0.8 ± 0.6 nM; in the assay with Subtype C virus BG-05 (setting [6]), 0.8 ± 0.04 nM. Besides, the EC50 in the assay with Subtype C virus HB-1 (setting [6]) was found to be 0.1 ± 0.01 nM.

`CCN1C[C@H](C)n2c(c(O)c3c(=O)n(Cc4ccc(F)c(Cl)c4)nc(C(=O)NC)c32)C1=O` [MK-2048]: the IC50 in [3] (read-out: 3' Processing IC50) amounted to 580 nM; in assay [3] (read-out: Strand Transfer IC50) it was 75 nM; in [4], 4.7 nM; in assay [5], 2.3 nM; in assay [2] (read-out: 3' Processing IC50, Mn2+-based assay, 95% confidence interval in brackets), 190 nM; in [2] (read-out: Strand Transfer IC50, Mn2+-based assay, 95% confidence interval in brackets), 80 nM. The Inhibition of disintegration result in assay [1] and in assay [2] was “inhibited by high concentrations of MK-2048” throughout. The EC50 with Subtype B virus 5326 (Subtype B virus 5326, cord blood mononuclear cells, p24 antigen) is 7.2 ± 2.1 nM; in the assay with Subtype B virus 5331 (Subtype B virus 5331, cord blood mononuclear cells, p24 antigen), 1 ± 0.2 nM; with Subtype B virus BK 132 (Subtype B virus BK 132, cord blood mononuclear cells, p24 antigen), 14.8 ± 3.2 nM; in the assay on Subtype B virus IIIb (Subtype B virus IIIb, cord blood mononuclear cells, p24 antigen) it was 0.3 ± 0.1 nM; with Subtype B virus pNL4-3 (Subtype B virus pNL4-3, cord blood mononuclear cells, p24 antigen) it was 2.7 ± 0.9 nM; with Subtype C virus 4742 (Subtype C virus 4742, cord blood mononuclear cells, p24 antigen, read-out: EC50 Values), 3.3 ± 2 nM. Besides, the EC50 came to 1.5 ± 0.1 nM in the assay on Subtype C virus 96USNG31 (Subtype C virus 96USNG31, cord blood mononuclear cells, p24 antigen, read-out: EC50 Values); 2.2 ± 0.7 nM in the assay with Subtype C virus BG-05 (Subtype C virus BG-05, cord blood mononuclear cells, p24 antigen, read-out: EC50 Values); 0.7 ± 0.5 nM in the assay on Subtype C virus HB-1 (Subtype C virus HB-1, cord blood mononuclear cells, p24 antigen, read-out: EC50 Values); 1.1 ± 0.1 nM in the assay with Subtype C virus Mole 03 (Subtype C virus Mole 03, cord blood mononuclear cells, p24 antigen, read-out: EC50 Values).

As to `Cc1nnc(C(=O)NC(C)(C)c2nc(C(=O)NCc3ccc(F)cc3)c(O)c(=O)n2C)o1` [RAL, raltegravir], the Inhibition of disintegration result in assay [1] and in assay [2] was “neither RAL nor EVG had much effect” each time. The EC50 with Subtype B virus 5326 turned out to be 24.3 ± 2.5 nM; with Subtype B virus 5331 it was 5.6 ± 2.2 nM; with Subtype B virus BK 132, 30.1 ± 5.4 nM; in the assay with Subtype B virus IIIb (IIIB), 1.2 ± 0.5 nM; with Subtype B virus pNL4-3, 8.2 ± 1.3 nM; in the assay with Subtype C virus 4742 (setting [6]) it was 20.6 ± 9 nM. In addition, the EC50 is 8.7 ± 0.7 nM in the assay with Subtype C virus 96USNG31 (setting [6]), 6.7 ± 0.9 nM in the assay with Subtype C virus BG-05 (setting [6]), 1.5 ± 0.4 nM in the assay with Subtype C virus HB-1 (setting [6]) and 4.6 ± 0.2 nM in the assay with Subtype C virus Mole 03 (setting [6]).
